Measured values: the NIST ThermoML archive (doi:10.1021/je0301040)

Test: xn = mol fraction of the nth substance listed

FC(Cl)(Cl)Cl [trichlorofluoromethane] + FC(F)Cl
Settings	mass density [kg/m3]
230 K, 25860 kPa, Liquid, Pycnometric method, x1 = 0.8336	1641.63
230.01 K, 668.5 kPa, Liquid, Pycnometric method, x1 = 0.8336	1604.47
230.01 K, 1004 kPa, Liquid, Pycnometric method, x1 = 0.8336	1605.02
230.01 K, 2033.3 kPa, Liquid, Pycnometric method, x1 = 0.8336	1606.97
230.01 K, 2374.4 kPa, Liquid, Pycnometric method, x1 = 0.8336	1607.47
230.01 K, 2689.9 kPa, Liquid, Pycnometric method, x1 = 0.8336	1608.01
230.01 K, 3067 kPa, Liquid, Pycnometric method, x1 = 0.8336	1608.63
230.01 K, 3637.3 kPa, Liquid, Pycnometric method, x1 = 0.8336	1609.58
230.01 K, 12707 kPa, Liquid, Pycnometric method, x1 = 0.8336	1623.4
230.01 K, 65252 kPa, Liquid, Pycnometric method, x1 = 0.8336	1686.03
230.02 K, 1691.3 kPa, Liquid, Pycnometric method, x1 = 0.8336	1606.39
230.02 K, 38513 kPa, Liquid, Pycnometric method, x1 = 0.8336	1657.76
230.02 K, 51629 kPa, Liquid, Pycnometric method, x1 = 0.8336	1672.95
232.01 K, 344.5 kPa, Liquid, isochoric method, x1 = 0.832	1585.93
232.01 K, 367.9 kPa, Liquid, isochoric method, x1 = 0.832	1585.93
233.01 K, 1630.1 kPa, Liquid, isochoric method, x1 = 0.832	1585.8
234.01 K, 2889.9 kPa, Liquid, isochoric method, x1 = 0.832	1585.67
245.01 K, 363.7 kPa, Liquid, isochoric method, x1 = 0.832	1556.16
246.5 K, 2106.6 kPa, Liquid, isochoric method, x1 = 0.832	1555.98
248 K, 3843.5 kPa, Liquid, isochoric method, x1 = 0.832	1555.8
248 K, 3865.5 kPa, Liquid, isochoric method, x1 = 0.832	1555.8
248.01 K, 3870.3 kPa, Liquid, isochoric method, x1 = 0.832	1555.8
249 K, 4990.8 kPa, Liquid, isochoric method, x1 = 0.832	1555.68
264.5 K, 1262.1 kPa, Liquid, isochoric method, x1 = 0.832	1513.38
266.5 K, 3302.5 kPa, Liquid, isochoric method, x1 = 0.832	1513.15
268 K, 4830.1 kPa, Liquid, isochoric method, x1 = 0.832	1512.98
268 K, 4846.4 kPa, Liquid, isochoric method, x1 = 0.832	1512.98
269.99 K, 2096.8 kPa, Liquid, Pycnometric method, x1 = 0.8336	1502.82
269.99 K, 21561 kPa, Liquid, Pycnometric method, x1 = 0.8336	1541.21
269.99 K, 41933 kPa, Liquid, Pycnometric method, x1 = 0.8336	1573.88
270 K, 378 kPa, Liquid, Pycnometric method, x1 = 0.8336	1498.95
270 K, 696 kPa, Liquid, Pycnometric method, x1 = 0.8336	1499.67
270 K, 1081 kPa, Liquid, Pycnometric method, x1 = 0.8336	1500.54
270 K, 1383.8 kPa, Liquid, Pycnometric method, x1 = 0.8336	1501.23
270 K, 1742 kPa, Liquid, Pycnometric method, x1 = 0.8336	1502.02
270 K, 2410 kPa, Liquid, Pycnometric method, x1 = 0.8336	1503.54
270 K, 2708.1 kPa, Liquid, Pycnometric method, x1 = 0.8336	1504.16
270 K, 3130 kPa, Liquid, Pycnometric method, x1 = 0.8336	1505.05
270 K, 3854.5 kPa, Liquid, Pycnometric method, x1 = 0.8336	1506.62
270 K, 7625.3 kPa, Liquid, Pycnometric method, x1 = 0.8336	1514.59
270 K, 14726 kPa, Liquid, Pycnometric method, x1 = 0.8336	1528.68
270 K, 27467 kPa, Liquid, Pycnometric method, x1 = 0.8336	1551.32
270 K, 35271 kPa, Liquid, Pycnometric method, x1 = 0.8336	1563.81
270 K, 48894 kPa, Liquid, Pycnometric method, x1 = 0.8336	1583.8
270 K, 55535 kPa, Liquid, Pycnometric method, x1 = 0.8336	1592.86
270 K, 62211 kPa, Liquid, Pycnometric method, x1 = 0.8336	1601.52
288 K, 932.5 kPa, Liquid, isochoric method, x1 = 0.832	1464.29
290 K, 2670 kPa, Liquid, isochoric method, x1 = 0.832	1464.09
293 K, 5258.3 kPa, Liquid, isochoric method, x1 = 0.832	1463.78
293 K, 5259.5 kPa, Liquid, isochoric method, x1 = 0.832	1463.78
298.14 K, 1069.1 kPa, Liquid, Pycnometric method, x1 = 0.8336	1439.09
298.14 K, 1772.4 kPa, Liquid, Pycnometric method, x1 = 0.8336	1441.18
298.14 K, 2113.1 kPa, Liquid, Pycnometric method, x1 = 0.8336	1442.22
298.14 K, 2728.2 kPa, Liquid, Pycnometric method, x1 = 0.8336	1444.75
298.14 K, 3032.4 kPa, Liquid, Pycnometric method, x1 = 0.8336	1445.59
298.14 K, 21180 kPa, Liquid, Pycnometric method, x1 = 0.8336	1490.62
298.14 K, 49069 kPa, Liquid, Pycnometric method, x1 = 0.8336	1542.62
298.14 K, 63135 kPa, Liquid, Pycnometric method, x1 = 0.8336	1564.13
298.15 K, 390.2 kPa, Liquid, Pycnometric method, x1 = 0.8336	1436.97
298.15 K, 717.7 kPa, Liquid, Pycnometric method, x1 = 0.8336	1438.05
298.15 K, 1383.5 kPa, Liquid, Pycnometric method, x1 = 0.8336	1440.04
298.15 K, 2381.3 kPa, Liquid, Pycnometric method, x1 = 0.8336	1443.01
298.15 K, 2409.4 kPa, Liquid, Pycnometric method, x1 = 0.8336	1443.8
298.15 K, 3541.1 kPa, Liquid, Pycnometric method, x1 = 0.8336	1447.03
298.15 K, 7060.4 kPa, Liquid, Pycnometric method, x1 = 0.8336	1456.68
298.15 K, 14256 kPa, Liquid, Pycnometric method, x1 = 0.8336	1474.84
298.15 K, 27634 kPa, Liquid, Pycnometric method, x1 = 0.8336	1504
298.15 K, 35295 kPa, Liquid, Pycnometric method, x1 = 0.8336	1518.86
298.15 K, 42224 kPa, Liquid, Pycnometric method, x1 = 0.8336	1531.13
298.15 K, 56475 kPa, Liquid, Pycnometric method, x1 = 0.8336	1554.44
298.15 K, 67870 kPa, Liquid, Pycnometric method, x1 = 0.8336	1570.81
305.99 K, 2209.4 kPa, Liquid, isochoric method, x1 = 0.832	1419.96
305.99 K, 2209.7 kPa, Liquid, isochoric method, x1 = 0.832	1419.96
308.99 K, 4508.6 kPa, Liquid, isochoric method, x1 = 0.832	1419.67
311.99 K, 6798.4 kPa, Liquid, isochoric method, x1 = 0.832	1419.39
311.99 K, 6800.1 kPa, Liquid, isochoric method, x1 = 0.832	1419.39
319.98 K, 1419.4 kPa, Liquid, Pycnometric method, x1 = 0.8336	1381.39
319.98 K, 2419.9 kPa, Liquid, Pycnometric method, x1 = 0.8336	1385.12
319.99 K, 690.7 kPa, Liquid, Pycnometric method, x1 = 0.8336	1378.66
319.99 K, 1087.6 kPa, Liquid, Pycnometric method, x1 = 0.8336	1380.16
319.99 K, 1721.1 kPa, Liquid, Pycnometric method, x1 = 0.8336	1382.53
319.99 K, 2054.4 kPa, Liquid, Pycnometric method, x1 = 0.8336	1383.74
319.99 K, 2726 kPa, Liquid, Pycnometric method, x1 = 0.8336	1386.19
319.99 K, 3165.8 kPa, Liquid, Pycnometric method, x1 = 0.8336	1387.81
319.99 K, 3805.2 kPa, Liquid, Pycnometric method, x1 = 0.8336	1390.08
319.99 K, 7368.4 kPa, Liquid, Pycnometric method, x1 = 0.8336	1402.12
319.99 K, 13993 kPa, Liquid, Pycnometric method, x1 = 0.8336	1422.16
319.99 K, 20936 kPa, Liquid, Pycnometric method, x1 = 0.8336	1440.83
319.99 K, 27630 kPa, Liquid, Pycnometric method, x1 = 0.8336	1456.91
319.99 K, 35180 kPa, Liquid, Pycnometric method, x1 = 0.8336	1473.5
319.99 K, 42218 kPa, Liquid, Pycnometric method, x1 = 0.8336	1486.74
319.99 K, 49603 kPa, Liquid, Pycnometric method, x1 = 0.8336	1501.44
319.99 K, 56549 kPa, Liquid, Pycnometric method, x1 = 0.8336	1513.51
319.99 K, 62595 kPa, Liquid, Pycnometric method, x1 = 0.8336	1523.41
319.99 K, 66514 kPa, Liquid, Pycnometric method, x1 = 0.8336	1534.42
325.99 K, 1939.3 kPa, Liquid, isochoric method, x1 = 0.832	1362.85
328.99 K, 3911.9 kPa, Liquid, isochoric method, x1 = 0.832	1362.59
331.99 K, 5879.8 kPa, Liquid, isochoric method, x1 = 0.832	1362.33
331.99 K, 5890.5 kPa, Liquid, isochoric method, x1 = 0.832	1362.33
349.98 K, 353.7 kPa, Gas, isochoric method, x1 = 0.832	131.816
349.98 K, 1087.3 kPa, Liquid, Pycnometric method, x1 = 0.8336	1291.23
349.98 K, 1418.4 kPa, Liquid, Pycnometric method, x1 = 0.8336	1293.05
349.98 K, 1769.1 kPa, Liquid, Pycnometric method, x1 = 0.8336	1294.97
349.98 K, 2081.3 kPa, Liquid, Pycnometric method, x1 = 0.8336	1296.63
349.98 K, 2408.9 kPa, Liquid, Pycnometric method, x1 = 0.8336	1298.31
349.98 K, 2747.4 kPa, Liquid, Pycnometric method, x1 = 0.8336	1300.08
349.98 K, 3091.9 kPa, Liquid, Pycnometric method, x1 = 0.8336	1301.88
349.98 K, 7457.3 kPa, Liquid, Pycnometric method, x1 = 0.8336	1322.34
349.98 K, 14287 kPa, Liquid, Pycnometric method, x1 = 0.8336	1349.36
349.98 K, 20907 kPa, Liquid, Pycnometric method, x1 = 0.8336	1371.66
349.98 K, 35596 kPa, Liquid, Pycnometric method, x1 = 0.8336	1412.26
349.98 K, 42532 kPa, Liquid, Pycnometric method, x1 = 0.8336	1428.61
349.98 K, 49571 kPa, Liquid, Pycnometric method, x1 = 0.8336	1443.89
349.98 K, 56566 kPa, Liquid, Pycnometric method, x1 = 0.8336	1457.8
349.98 K, 62677 kPa, Liquid, Pycnometric method, x1 = 0.8336	1469.23
349.99 K, 3577.6 kPa, Liquid, Pycnometric method, x1 = 0.8336	1304.32
349.99 K, 27703 kPa, Liquid, Pycnometric method, x1 = 0.8336	1391.72
349.99 K, 68231 kPa, Liquid, Pycnometric method, x1 = 0.8336	1479.1
351.98 K, 3607.1 kPa, Liquid, isochoric method, x1 = 0.832	1298.78
354.98 K, 5239.3 kPa, Liquid, isochoric method, x1 = 0.832	1298.54
357.98 K, 6868 kPa, Liquid, isochoric method, x1 = 0.832	1298.31
357.98 K, 6868.5 kPa, Liquid, isochoric method, x1 = 0.832	1298.31
357.98 K, 6872.5 kPa, Liquid, isochoric method, x1 = 0.832	1298.31
357.98 K, 6876.5 kPa, Liquid, isochoric method, x1 = 0.832	1298.31
374.97 K, 140.1 kPa, Fluid (supercritical or subcritical phases), Burnett expansion method, x1 = 0.832	5.9076
374.97 K, 155.55 kPa, Fluid (supercritical or subcritical phases), Burnett expansion method, x1 = 0.832	6.5788
374.97 K, 572.06 kPa, Fluid (supercritical or subcritical phases), Burnett expansion method, x1 = 0.832	25.934
374.97 K, 705.75 kPa, Fluid (supercritical or subcritical phases), Burnett expansion method, x1 = 0.832	32.8139
374.97 K, 712.23 kPa, Fluid (supercritical or subcritical phases), Burnett expansion method, x1 = 0.832	33.1519
374.97 K, 775.25 kPa, Fluid (supercritical or subcritical phases), Burnett expansion method, x1 = 0.832	36.5414
374.97 K, 2140.4 kPa, Liquid, Pycnometric method, x1 = 0.8336	1209.34
374.97 K, 2454.5 kPa, Liquid, Pycnometric method, x1 = 0.8336	1211.8
374.97 K, 2781.1 kPa, Liquid, Pycnometric method, x1 = 0.8336	1214.3
